Experimental data from patent publication US20190290656A1, “PT(IV) PRODRUGS” (YISSUM RESEARCH DEVELOPMENT COMPANY OF THE HEBREW …, priority 2015, published 2019).
Where two headings read alike, the source gives them in different places.

Assays:
A549 cells = assay: MTT cytotoxicity assay, A549; assay type: cell-based, human; settings: for IC50: A549, 72 h exposure, MTT, read-out: IC50 (median growth inhibitory concentration)
Method: (§1) Cisplatin (CDDP) and oxaliplatin (OXP) were dissolved just before the experiment in a 0.9% NaCl solution.
(§2) Human prostate adenocarcinoma (PC3) cells were obtained from European Collection of Cell Cultures (ECACC, Salisbury, UK). Human ovarian cancer cell lines A2780 and its cisplatin resistant variant, A2780cisR, were kindly provided by Prof.
(§3) Triplicate cultures were established for each treatment.

HCT-15 cells = assay: MTT cytotoxicity assay, HCT-15; assay type: cell-based, human; settings: for IC50: HCT-15, 72 h exposure, MTT (Table 1), read-out: IC50 (median growth inhibitory concentration)
Method: (§4) Cisplatin (CDDP) and oxaliplatin (OXP) were dissolved just before the experiment in a 0.9% NaCl solution. […]
(§5) Cancer Res. 1988, 48, 589-601]. […] Triplicate cultures were established for each treatment.
(§6) MTT assay. […] Triplicate cultures were established for each treatment.
(§7) The two dimers, 3a and 3b, as well as compounds 1a and 2a were screened against six human cancer cell lines representative of lung (H157), colon (HCT-15), cervical (A431), ovarian (2008) and pancreatic (PSN1) cancers, along with melanoma (A375). Cytotoxicity was evaluated by means of the MTT test after 72 h of treatment and the in vitro antitumor potential of newly synthesized derivatives was compared to that of the reference metallo-drugs CDDP and OXP.

PC3 cells = assay: MTT cytotoxicity assay, PC3; assay type: cell-based, human; settings: PC3, 72 h exposure, read-out: IC50 (median growth inhibitory concentration)
Method: as §1, §2, §3

A375 cells = assay: MTT cytotoxicity assay, A375; assay type: cell-based, human; settings: A375, 72 h exposure, MTT (Table 1); read-out: IC50 (median growth inhibitory concentration)
Method: as §4, §5, §6, §7

MCF-7 cells [1] = assay: Nuclear DNA fragmentation ELISA, MCF-7; assay type: cell-based, human; settings: MCF-7, 24 h, IC50 concentrations
Source text: FIGS. 4A-4C describe: FIG. 4A—Nuclear DNA fragmentation. […] Quantitative estimation of DNA fragmentation was obtained with an ELISA test. Data are the means of five independent experiments. Error bars indicate SD. […] FIG. 4C—Caspase activity. […] Data are the means of at least three independent experiments. Error bars indicate SD.
To gain more insights into the mode of action of newly synthesized Pt(IV) derivatives, compounds 1 and 6 were chosen for further experiments. In particular, their capacity to induce apoptosis against human breast MCF-7 cells treated with equitoxic concentrations (IC50 values) of these drugs was evaluated and compared. Nuclear DNA fragmentation and apoptosome complex formation are critical steps in the apoptotic process. […] Apoptotic cell death induction was confirmed through a Hoechst 33342 staining.

A2780 cells = assay: MTT cytotoxicity assay, A2780; assay type: cell-based, human; settings: for IC50: A2780, 72 h exposure, MTT, read-out: IC50 (median growth inhibitory concentration)
Method: (§8) Platinum(IV) complexes were dissolved in DMSO to stock solutions of 1 mg/mL just before the experiment, and a calculated amount of drug solution was added to the cell growth medium to a final solvent concentration of 0.5%, which had no discernible effect on cell killing. Cisplatin (CDDP) and oxaliplatin (OXP) were dissolved just before the experiment in a 0.9% NaCl solution.
as §2, §5

MCF-7 cells [2] = assay: MTT cytotoxicity assay, MCF-7; assay type: cell-based, human; settings: for times more effective/potent than cisplatin: MCF-7; for IC50: MCF-7, 72 h exposure, MTT, read-out: IC50 (median growth inhibitory concentration)
Method: as §1, §2, §3

[3] = test system: Histone deacetylase (HDAC); assay: Histone deacetylase assay (Fluor-de-Lys) in MCF-7 cells; assay type: cell-based, human; settings: for IC50 for cellular inhibition of HDAC activity (in words): MCF-7, 24 h, increasing concentrations; for inhibition of HDAC activity: MCF-7, 24 h incubation with IC50 concentrations
Method: Histone deacetylase activity was determined using Fluor-de-Lys® HDAC fluorometric activity assay kit (Enzo Life Sciences International, Inc., Plymount Meeting, Pa., U.S.A.). […] Fluorescence was measured using a Fluoroskan Ascent FL (Labsystem, Finland) plate reader, with excitation at 360 nm and emission at 460 nm. For comparison purpose, the HDAC activity was also measured in nuclear extracts of MCF-7-treated cells by means of the same fluorometric activity assay kit. In this latter case, MCF-7 nuclear extracts were obtained as follow: cell pellets were re-suspended in lysis buffer [Tris.HCl (10 mM, pH 8.0), KCl (60 mM), EDTA (1.2 mM), DTT (1 mM), PMSF (0.05 mM), NP-40 (0.05%)] and kept on ice for 10 min. Subsequently, samples were centrifuged at 1000 g and re-suspended in the nuclear extraction buffer [Tris.HCl (20 mM, (pH 8.0), NaCl (420 mM), MgCl2 (0.7 mM), EDTA (0.25 mM), glycerol (25%)] for 30 min at 4° C., and then centrifuged at 15000 g for 15 min at 4° C.
The complexes described here were specifically designed to release either VPA of PhB inside the cells in the hope that they will inhibit HDAC activity paving the way for more efficient DNA platination. Thus, in addition to measuring the levels of DNA platination, we also measured the ability of these pro-drugs to inhibit HDAC activity in cells. […] For comparison purposes, the HDAC inhibitory effect determined by tested complexes was also assayed in isolated nuclei of MCF-7 treated cells (FIG. 3B).
The HDAC activity was determined by the Fluor de Lys® Fluorescent Cellular Activity Assay (Enzo Life Sciences).
Also, MCF-7 cells were incubated for 24 h with increasing concentrations of compounds I-VIII and their HDAC activity was determined. The IC50 values for the inhibition of HDAC activity in the cells are depicted in FIG. 3C.

BxPC3 cells = assay: MTT cytotoxicity assay, BxPC3; assay type: cell-based, human; settings: for times more effective/potent than cisplatin: BxPC3; for IC50: BxPC3, 72 h exposure, MTT, read-out: IC50 (median growth inhibitory concentration)
[4] = test system: Lewis lung carcinoma (LLC); assay: In vivo efficacy study, Lewis lung carcinoma mouse model; set-up: species or system C57BL mice
Method: A preliminary in vivo efficacy study was carried out on a mouse model (see Table 3 below):
Lewis lung carcinoma (LLC) was implanted i.m. (2·10^6 cells inoculum) into the right hind leg of 8-week old inbred C57BL mice (24±3 g body weight). Chemotherapy was delayed until the tumor became visible (day 7).

A2780cisR cells = assay: MTT cytotoxicity assay, A2780cisR (cisplatin resistant); assay type: cell-based, human; settings: for IC50: 72 h exposure, MTT, read-out: IC50 (median growth inhibitory concentration)
Method: as §8, §2, §5

A498 cells = assay: MTT cytotoxicity assay, A498; assay type: cell-based, human; settings: A498, 72 h exposure, read-out: IC50 (median growth inhibitory concentration)
Method: as §8, §2, §5

nine cancer cell lines = assay: MTT cytotoxicity, over the nine cancer cell lines; settings: for average fold more potent than cisplatin: average over cell lines
[5] = octanol/water partition, shake-flask method; assay type: physicochemical
Method: To quantify the hydrophobicity of the platinum complexes, partition coefficients (log P) values for octanol/water partition were measured using the shake-flask method.

[6] = daily dose 20 mg kg^-1 orally, day 7-14, LLC in C57BL mice
[7] = read-out: average IC50 values for the nine cancer cell lines, mean over nine cell lines, 72 h MTT

Structure (SMILES)	IC50 (A549 cells)	IC50 (HCT-15 cells)	IC50 (PC3 cells)	IC50 (A375 cells)	times higher induction of nucleosome formation compared with cisplatin (MCF-7 cells [1])	IC50 (A2780 cells)	times more effective/potent than cisplatin (MCF-7 cells [2])	IC50 (MCF-7 cells [2])	IC50 for cellular inhibition of HDAC activity (in words) [3]	inhibition of HDAC activity [3]	times more effective/potent than cisplatin (BxPC3 cells)	IC50 (BxPC3 cells)	IC50 (A2780cisR cells; A2780cisR)	IC50 (A498 cells)	IC50 (nine cancer cell lines; [7])	other results
CCCC(CCC)C(=O)[O][Pt]([Cl])([Cl])[O]C(=O)C(CCC)CCC.N.N [I, Ctc-Pt(NH3)2(C8H15O2)2Cl2]]	1.12 ± 0.32 µM	0.81 ± 0.12 µM	2.13 ± 0.45 µM	1.25 ± 0.25 µM	1.5 fold	0.25 ± 0.09 µM	about 19 fold	0.91 ± 0.3 µM	highest inhibitory effect	~65%	~10 fold	1.13 ± 0.14 µM	0.3 ± 0.1 µM	2.43 ± 0.72 µM	1.15 µM	times more effective than cisplatin (HCT-15 cells; HCT-15): ~14 fold; fold more potent than cisplatin (A2780 cells; A2780): 11 fold; Average tumor weight (mean ± SD, g) [4, 6]: 0.179 ± 0.07 g; Inhibition of tumor growth (%) [4, 6]: 68.21%; fold more potent/effective than cisplatin (A2780cisR cells; A2780cisR): 46 fold; resistance factor (A2780cisR cells; ratio IC50 resistant (A2780cisR) / sensitive (A2780) cells): 1.2; fold more potent than the mono-VPA monoacetato analog (nine cancer cell lines; average of the nine cell lines): 4.6 fold; average fold more potent than cisplatin (nine cancer cell lines): 8 fold
[NH2][Pt]([NH2])([Cl])([Cl])([O]C(=O)CCCc1ccccc1)[O]C(=O)CCCc1ccccc1 [Compound VI, ctc-[Pt(NH3)2(C10H11O2)2Cl2]]	0.17 ± 0.04 µM	0.31 ± 0.04 µM	0.41 ± 0.06 µM	0.16 ± 0.02 µM	2 fold	0.14 µM	~100 fold	0.18 ± 0.03 µM	highest inhibitory effect	approximately 70%	~60 fold	0.19 ± 0.01 µM	0.12 µM	0.43 ± 0.02 µM	0.23 µM	fold more potent than cisplatin (A549 cells; A549): ~50 fold; Log P [5]: −0.73 ± 0.05; in vivo efficacy by oral administration (in words) ([4]; oral vs cisplatin ip): nearly as effective in this model as cisplatin; average fold more potent than cisplatin (nine cancer cell lines; listed as Ctc-[Pt(NH3)2(PhB)2Cl2]): 50 fold; average fold more potent than cisplatin (nine cancer cell lines; listed as ctc-[Pt(NH3)2(PhB)2Cl2]): about 24 fold; fold improvement in potency on replacing both VPA ligands with PhB (VI vs I) (nine cancer cell lines; on the average): ~5 fold; fold more potent than the mono-PhB monoacetate complex (nine cancer cell lines; range over cell lines): 4.6-53 fold; IC50 (nine cancer cell lines; read-out: range of IC50 values over the cell lines, lowest-highest over nine cell lines): 0.12 to 0.43 µM
